Tests used:
[1] = system: DU145 (prostate cancer); test: Cancer cell assay, tumor cells DU145; assay type: cell-based; conditions: Homo sapiens, examined 96 hours later, viable cells by trypan blue exclusion
Method: (§1) The effect of the compounds of the invention on tumor cells was determined by the assay described by Latham et al., Oncogene 12:827-837 (1996). Tumor cells K562 (chronic myelogenous leukemia; leukemia cell line +ve for Bcr-Abl) or DU145 (prostate cancer) were plated in 12-well dishes at a cell density of 2.5×10^4 cells well. The plated cells were treated 24 hours later with a compound of the invention dissolved in DMSO at multiple concentrations ranging from 0.01 μM to 100 μM. The plates were examined 96 hours later under an inverted microscope, Olympus CK-2 using a 10× objective, and compound activity was noted by physical observation. When necessary, the total number of viable cells was determined by trypsinizing the wells and counting the number of viable cells, as determined by trypan blue exclusion, using a hemacytometer.

[2] = system: K562 (chronic myelogenous leukemia; leukemia cell line +ve for Bcr-Abl); test: Cancer cell assay, tumor cells K562; assay type: cell-based; conditions: Homo sapiens, compound in DMSO 0.01 μM to 100 μM, examined 96 hours later, viable cells by trypan blue exclusion
Method: as §1

[3] = DU-145, compound in DMSO 0.01 μM to 100 μM

SMILES	melting point [°C]	IC50 [1, 3] [µM]	IC50 [2] [µM]	IC50 ([1]; DU-145, 96 h, compound in DMSO 0.01 μM to 100 μM) [µM]	IC50 ([2]; K562, 96 h) [µM]
O=S(=O)(CCc1ccc(F)cc1)Cc1ccc(Cl)cc1 [Example 2, 1-Chloro-4-(((4-fluorophenethyl)sulfonyl)methyl)benzene]	142 to 144	1.5	1.5		
COc1cc(OC)c(CCS(=O)(=O)Cc2ccc(OC)c(N)c2)c(OC)c1 [Example 3, 2-Methoxy-5-(((2,4,6-trimethoxyphenethyl)sulfonyl)methyl)aniline]	128 to 130	0.003	0.0025		
COc1cc(OC)c(CCS(=O)(=O)Cc2ccc(OC)c(NCC(=O)O)c2)c(OC)c1 [Example 4]	146 to 150	0.25	0.5		
COc1cc(OC)c(CCS(=O)(=O)Cc2ccc(OC)c(O)c2)c(OC)c1 [Example 5, 2-Methoxy-5-(((2,4,6-trimethoxyphenethyl)sulfonyl)methyl)phenol]	136 to 138	0.0075	0.003		
O=C(O)c1ccc(CCS(=O)(=O)Cc2ccc(Cl)cc2)cc1 [Example 6, 4-(2-((4-Chlorobenzyl)sulfonyl)ethyl)benzoic acid]	265 to 267	10	10		
COc1cc(OC)c(CCC(=O)Nc2ccc(OC)c(N)c2)c(OC)c1 [Example 7, N-(3-Amino-4-methoxyphenyl)-3-(2,4,6-trimethoxyphenyl)propanamide]		5	0.15		
COC(=O)CNc1cc(CS(=O)(=O)CCc2c(OC)cc(OC)cc2OC)ccc1OC [Example 8]		0.15	0.15		
COC(=O)CN(CC(=O)OC)c1cc(CS(=O)(=O)CCc2c(OC)cc(OC)cc2OC)ccc1OC [Example 9, Dimethyl 2,2′-((2-methoxy-5-(((2,4,6-trimethoxyphenethyl)sulfonyl)methyl)phenyl)azanediyl)diacetate]	86 to 88	2	2		
COc1cc(OC)c(CCS(=O)(=O)Nc2ccc(OC)c(N)c2)c(OC)c1 [Example 19, N-(3-Amino-4-methoxyphenyl)-2-(2,4,6-trimethoxyphenyl)ethanesulfonamide]		0.005	0.003		
COc1ccc(CS(=O)(=O)CCc2c(OC)cc(OC)cc2OC)cc1 [Example 20, 1,3,5-Trimethoxy-2-(2-((4-methoxybenzyl)sulfonyl)ethyl)benzene]		0.15	0.05		
COc1cc(OC)c(CCS(=O)(=O)Cc2ccc(OC)c(NCC(=O)O)c2)c(OC)c1 [Example 21, 2 ((2-methoxy-5-(((2,4,6-trimethoxyphenethyl)sulfonyl)methyl)phenyl)amino)acetate]				0.15	0.04
COc1ccc(CCNS(=O)(=O)c2ccc(C)cc2)cc1 [Example 22, N-(4-methoxyphenethyl)-4-methylbenzenesulfonamide]		60	60		
COc1ccc(CCNS(=O)(=O)c2ccc(OC)c([N+](=O)[O-])c2)cc1 [Example 23, 4-methoxy-N-(4-methoxyphenethyl)-3-nitrobenzenesulfonamide]		35	35		
COc1cc(OC)c(CCNS(=O)(=O)c2ccc(OC)c([N+](=O)[O-])c2)c(OC)c1 [Example 25, 4-methoxy-3-nitro-N-(2,4,6-trimethoxyphenethyl)benzenesulfonamide]		35	35		
COc1cc(OC)c(CCNS(=O)(=O)c2ccc(OC)c(N)c2)c(OC)c1 [Example 26, 3-amino-4-methoxy-N-(2,4,6-trimethoxyphenethyl)benzenesulfonamide]		5	0.75		
COc1ccc(CCNS(=O)(=O)c2ccc(OC)cc2)cc1 [Example 27, 4-methoxy-N-(4-methoxyphenethyl)benzenesulfonamide]		75	75		
COc1ccc(S(=O)(=O)NCCc2c(OC)cc(OC)cc2OC)cc1 [Example 28, 4-methoxy-N-(2,4,6-trimethoxyphenethyl)benzenesulfonamide]		> 10	> 10		

Continued, in another order:

melting point [°C]	IC50 [1, 3] [µM]	IC50 [2] [µM]	SMILES	IC50 ([1]; DU-145, 96 h, compound in DMSO 0.01 μM to 100 μM) [µM]	IC50 ([2]; K562, 96 h) [µM]
	> 10	> 10	COc1cc(OC)c(CCNS(=O)(=O)c2ccc(C)cc2)c(OC)c1 [Example 29, 4-methyl-N-(2,4,6-trimethoxyphenethyl)benzenesulfonamide]		
	15	5	COc1ccc(C(=O)NCCc2c(OC)cc(OC)cc2OC)cc1 [Example 30, 4-methoxy-N-(2,4,6-trimethoxyphenethyl)benzamide]		
	75	100	COc1ccc(CCNC(=O)c2ccc(OC)cc2)cc1 [Example 31, 4-methoxy-N-(4-methoxyphenethyl)benzamide]		
	75	75	COc1ccc(CCNC(=O)c2ccc(OC)c([N+](=O)[O-])c2)cc1 [Example 32, 4-methoxy-N-(4-methoxyphenethyl)-3-nitrobenzamide]		
	75	75	COc1ccc(CCNC(=O)c2ccc(OC)c(N)c2)cc1 [Example 33, 3-amino-4-methoxy-N-(4-methoxyphenethyl)benzamide]		
	75	75	COc1cc(OC)c(CCNC(=O)c2ccc(OC)c([N+](=O)[O-])c2)c(OC)c1 [Example 34, 4-methoxy-3-nitro-N-(2,4,6-trimethoxyphenethyl)benzamide]		
	5	0.5	COc1cc(OC)c(CCNC(=O)c2ccc(OC)c(N)c2)c(OC)c1 [Example 35, 3-amino-4-methoxy-N-(2,4,6-trimethoxyphenethyl)benzamide]		
	15	2.5	COc1ccc(CCS(=O)(=O)Nc2c(OC)cc(OC)cc2OC)cc1 [Example 36, 2-(4-methoxyphenyl)-N-(2,4,6-trimethoxyphenyl)ethanesulfonamide]		
	15	5	COc1cc(CSCCc2ccc(OC)c(OC)c2)ccc1O [Example 37, 4-(((3,4-dimethoxyphenethyl)thio)methyl)-2-methoxyphenol]		
	> 10	> 10	COc1cc(CS(=O)(=O)CCc2ccc(OC)c(OC)c2)ccc1O [Example 38, 4-(((3,4-dimethoxyphenethyl)sulfonyl)methyl)-2-methoxyphenol]		

Reference: US10207989B2, “Substituted alkyl diaryl derivatives, methods of preparation and uses” (TEMPLE UNIVERSITY—OF THE COMMONWEALTH SYSTEM OF HIGHER …, priority 2012, dated 2019)
